Results as given in ChEMBL document CHEMBL3046524, “Synthesis and biological evaluation of N 1,N 2-bis-[4-(t-amino)-2-butynyl]phthalamides as oxotremorine and acetylcholine antagonists” (Med Chem Res, 2013).
Active and inactive are the calls of the source. The calls are words filed in the database; no cut-off is given here.

Assays:
Ileum [1] = assay: Ionotropic activity in Cavia porcellus (guinea pig) ileum assessed as inhibition of acetylcholine-induced contraction after 15 min by physiographic analysis; assay type: functional, tissue-based; details: 0.25 h, read-out: pA2 (converted)
Ileum [2] = assay: Ionotropic activity in Cavia porcellus (guinea pig) ileum assessed as concentration required to inhibit acetylcholine-induced contraction after 15 min by physiographic analysis; assay type: functional
Mus musculus [3] = assay: Antitremor activity in ip dosed Mus musculus (mouse) assessed as concentration required to inhibit oxotremorine-induced tremor effect administered 15 to 20 min prior to oxotremorine challenge measured 15 to 20 min post oxotremorine challenge; assay type: functional
Mus musculus [4] = assay: Antitremor activity in ip dosed Mus musculus (mouse) assessed as inhibition of oxotremorine-induced tremor effect administered 15 to 20 min prior to oxotremorine challenge measured 15 to 20 min post oxotremorine challenge; assay type: functional, organism-based

O=C(NCC#CCN1CCCCC1)c1ccccc1C(=O)NCC#CCN1CCCCC1
Kb (Ileum [1]): 2510 nM
INH (Ileum [2]): 1.6 ×10⁻⁶ mol/L
INH (Mus musculus [3]): 8 µmol/kg

O=C1c2ccccc2C(=O)N1CC#CCN1CCCCC1
Kb (Ileum [1]): 1580 nM
INH (Ileum [2]): 1.6 ×10⁻⁶ mol/L
INH (Mus musculus [3]): 7.6 µmol/kg

CC1CCCC(C)N1CC#CCNC(=O)c1ccccc1C(=O)NCC#CCN1C(C)CCCC1C (stereo not given)
Kb (Ileum [1]): 1580 nM
INH (Ileum [2]): 3 ×10⁻⁶ mol/L
inhibition (Mus musculus [4]): inactive

CC1CCCCN1CC#CCNC(=O)c1ccccc1C(=O)NCC#CCN1CCCCC1C (stereo not given)
Kb (Ileum [1]): 2000 nM
INH (Ileum [2]): 1.2 ×10⁻⁶ mol/L

O=C(NCC#CCN1CCCCCCC1)c1ccccc1C(=O)NCC#CCN1CCCCCCC1
Kb (Ileum [1]): 1260 nM
INH (Ileum [2]): 5 ×10⁻⁶ mol/L

O=C1c2ccccc2C(=O)N1CC#CCN1CCCCCCC1
Kb (Ileum [1]): 794 nM
INH (Ileum [2]): 8 ×10⁻⁷ mol/L
INH (Mus musculus [3]): 2.4 µmol/kg

CC1CCCCN1CC#CCN1C(=O)c2ccccc2C1=O (stereo not given)
Kb (Ileum [1]): 1260 nM
INH (Ileum [2]): 1.2 ×10⁻⁶ mol/L
INH (Mus musculus [3]): 9.6 µmol/kg

CN1[C@@H]2CC[C@H]1C[C@@H](OC(=O)C(CO)c1ccccc1)C2 (stereo not given in full) [ATROPINE]
Kb (Ileum [1]): 3.98 nM
INH (Ileum [2]): 3.7 ×10⁻⁹ mol/L
INH (Mus musculus [3]): 2.8 µmol/kg

CC1CCCC(C)N1CC#CCN1C(=O)c2ccccc2C1=O (stereo not given)
Kb (Ileum [1]): 2000 nM
INH (Ileum [2]): 2 ×10⁻⁶ mol/L
inhibition (Mus musculus [4]): inactive
